Source: patent US20090017089A1, “Multiple active agents such as anthelmintics sustained release delivery device” (priority 2003, published 2009)

How the values were obtained:
[1] = system: abamectin-resistant Ostertagia circumcincta; experiment: Trial 2: repeated oral dosing of abamectin in lambs, worm count; format: in vivo
[2] = system: abamectin-resistant Trichostrongylus colubriformis; experiment: as above; format: in vivo
[3] = system: abamectin-resistant Cooperia spp.; experiment: as above; format: in vivo
[4] = system: multiple drug resistant Ostertagia circumcincta; experiment: Magnum combination bolus trial in sheep, efficacy based on worm counts; format: in vivo; settings: single standard oral doses
Description: (§1) This concept has again been tested for the present invention by constructing and testing for efficacy a Magnum bolus releasing 2 actives simultaneously. A prototype sheep bolus designed to release 5 mg/kg of albendazole and 0.18 mg/kg abamectin in a 50 kg sheep was tested against two species of multiple drench resistant parasites. Trial lambs ranged in weight from 48-55.5 kg.

[5] = system: multiple drug resistant Trichostrongylus colubriformis; experiment: as above; format: in vivo; settings: single standard oral doses
Description: as §1

[6] = system: resistant parasites; settings: Farm 4 from Anderson et al, 1991; cited from earlier work
[7] = system: adult liver fluke; settings: oral, Coles & Stafford 2001; cited from earlier work
[8] = system: immature flukes; settings: in vivo; cited from earlier work
[9] = system: albendazole resistant Trichostrongylus axei; experiment: Trial 1: repeated oral dosing of albendazole in lambs, worm count (abomasa)
[10] = system: albendazole resistant Ostertagia Circumcincta; experiment: as above
[11] = system: albendazole resistant Cooperia spp.; experiment: Trial 1: repeated oral dosing of albendazole in lambs, worm count (small intestine)
[12] = system: albendazole resistant Nematodirus spp.; experiment: as above
[13] = system: resistant Ostertagia circumcincta; experiment: Trial 3: oral albendazole vs prototype albendazole bolus in adult ewes, worm count (abomasa); settings: oral 5.0 mg/kg once
[14] = system: resistant Trichostrongylus axei; experiment: as above; settings: oral 5.0 mg/kg once
[15] = system: resistant Haemonchus Contortus; experiment: as above; settings: oral 5.0 mg/kg once
[16] = system: resistant Cooperia spp.; experiment: Trial 3: oral albendazole vs prototype albendazole bolus in adult ewes, worm count (small intestine); settings: oral 5.0 mg/kg once
[17] = system: parasites of goats; settings: Pomroy et al, 1992; cited from earlier work

abamectin
% reduction in worm count Ostertagia circumcincta ([1]; 0.07 mg/kg for 7 days): 77.2%
% reduction in worm count Ostertagia circumcincta ([1]; 0.113 mg/kg for 7 days): 89.3%
% reduction in worm count Ostertagia circumcincta ([1]; 0.18 mg/kg for 7 days): 96.4%
% reduction in worm count Ostertagia circumcincta ([1]; 0.2 mg/kg once): 45.0%
% reduction in worm count Trichostrongylus colubriformis ([2]; 0.07 mg/kg for 7 days): 47.3%
% reduction in worm count Trichostrongylus colubriformis ([2]; 0.113 mg/kg for 7 days): 55.3%
% reduction in worm count Trichostrongylus colubriformis ([2]; 0.18 mg/kg for 7 days): 77.1%
% reduction in worm count Trichostrongylus colubriformis ([2]; 0.2 mg/kg once): 60.7%
% reduction in worm count Cooperia spp. ([3]; 0.07 mg/kg for 7 days): 99.1%
% reduction in worm count Cooperia spp. ([3]; 0.113 mg/kg for 7 days): 99.6%
% reduction in worm count Cooperia spp. ([3]; 0.18 mg/kg for 7 days): 100.0%
% reduction in worm count Cooperia spp. ([3]; 0.2 mg/kg once): 94.9%

CO/N=C1\C[C@]2(C[C@@H]3C[C@@H](C/C=C(\C)C[C@@H](C)/C=C/C=C4\CO[C@@H]5[C@H](O)C(C)=C[C@@H](C(=O)O3)[C@]45O)O2)O[C@H](/C(C)=C/C(C)C)[C@H]1C [Moxidectin]
% reduction in worm count Ostertagia circumcincta ([1]; 0.2 mg/kg once): 76.3%
% reduction in worm count Trichostrongylus colubriformis ([2]; 0.2 mg/kg once): 72.5%
% reduction in worm count Cooperia spp. ([3]; 0.2 mg/kg once): 99.1%
Efficacy based on worm counts Ostertagia circumcincta [4]: 59.9
Efficacy based on worm counts Trichostrongylus colubriformis [5]: 90.6

CCCSc1ccc2nc(NC(=O)OC)[nH]c2c1 [Alb, albendazole]
Efficacy [6]: 73%
level of efficacy against adult liver fluke [7]: variable and less than desirable
efficacy against immature flukes [8]: ineffective
% reduction in worm count Trichostrongylus axei ([9]; 1.75 mg/kg for 7 days): 87.5%
% reduction in worm count Trichostrongylus axei ([9]; 2.5 mg/kg for 7 days): 90.2%
% reduction in worm count Trichostrongylus axei ([9]; 3.75 mg/kg for 7 days): 96.8%
% reduction in worm count Trichostrongylus axei ([9]; 5 mg/kg for 7 days): 97.6%
% reduction in worm count Trichostrongylus axei ([9]; 5 mg/kg once): 82.9%
% reduction in worm count Ostertagia circumcincta ([10]; 1.75 mg/kg for 7 days): 74.9%
% reduction in worm count Ostertagia circumcincta ([10]; 2.5 mg/kg for 7 days): 57.0%
% reduction in worm count Ostertagia circumcincta ([10]; 3.75 mg/kg for 7 days): 70.9%
% reduction in worm count Ostertagia circumcincta ([10]; 5 mg/kg for 7 days): 92.3%
% reduction in worm count Ostertagia circumcincta ([10]; 5 mg/kg once): 42.7%
% reduction in worm count Cooperia spp. ([11]; 1.75 mg/kg for 7 days): 57.1%
% reduction in worm count Cooperia spp. ([11]; 2.5 mg/kg for 7 days): 67.5%
% reduction in worm count Cooperia spp. ([11]; 3.75 mg/kg for 7 days): 83.3%
% reduction in worm count Cooperia spp. ([11]; 5 mg/kg for 7 days): 86.9%
% reduction in worm count Cooperia spp. ([11]; 5 mg/kg once): 36.9%
% reduction in worm count Nematodirus spp. ([12]; 1.75 mg/kg for 7 days): 58.9%
% reduction in worm count Nematodirus spp. ([12]; 2.5 mg/kg for 7 days): 69.0%
% reduction in worm count Nematodirus spp. ([12]; 3.75 mg/kg for 7 days): 88.1%
% reduction in worm count Nematodirus spp. ([12]; 5 mg/kg for 7 days): 73.9%
% reduction in worm count Nematodirus spp. ([12]; 5 mg/kg once): 71.2%
% reduction in worm count Ostertagia circumcincta [13]: 59.3%
% reduction in worm count Trichostrongylus axei [14]: 91.8%
% reduction in worm count Haemonchus Contortus [15]: 91.4%
% reduction in worm count Cooperia spp. [16]: 59.3%

ivermectin
Efficacy [17]: 27%

COC(=O)Nc1nc2ccc([S+]([O-])c3ccccc3)cc2[nH]1 (centres unmarked) [oxfendazole]
Efficacy [17]: 82%

c1ccc([C@H]2CN3CCSC3=N2)cc1 [Levamisole]
Efficacy [6]: 88%
